# Results reported in patent US12018011B2, “Macrocyclic compounds and compositions, and methods of preparing and using the same” (Kura Oncology, Inc., priority 2021, dated 2024).
# pIC50: −log10 of the molar value.
# Molecular target: T1, Recombinant human farnesyl transferase (FTase) (Homo sapiens, UniProt P49356)
# T1 construct: purchased Crelux (Martinsried, Germany)
# Assay: FTase fluorescence assay (farnesylation of dansyl-GCVLS peptide)
# Assay type: biochemical
# Details: recombinant human FTase 2.5 nM, Dansyl-GCVLS 85 nM, FPP 30 nM, 30° C., 50 minutes
# From the text: T24/83 cell line was purchased from the European Collection of Authenticated Cell Cultures (Salisbury, UK). Recombinant human farnesyl transferase (FTase) and geranylgeranyl transferase type-1 (GGTase) were obtained from Crelux (Martinsried, Germany). Dansyl labelled GCVLS peptide was purchased from Bachem (Torrance, CA), and Dansyl labelled GCVLL peptide was purchased from Bio Synthesis (Lewisville, TX). Farnesyl Pyrophosphate (FPP) and Geranylgeranyl pyrophosphate (GGPP) were purchased from Cayman (Ann Arbor, MI).
# Specific biochemical activity of the compounds disclosed herein as FTase inhibitors was determined by measuring the ability of the compounds to block the farnesylation by recombinant FTase of fluorescent (i.e., dansyl-labeled) test substrates derived from the CAAX box of farnesylated proteins, such as the peptide GCVLS.
# The IC50 value of the compounds disclosed herein as inhibitors of Ftase and/or GGTase, was determined by measuring the concentration (provided in nM) necessary to achieve inhibition of enzyme activity by 50% (IC50). […] Compounds having a low IC50 value against FTase, for example an IC50 (FTase)<100 nM, such as an IC50 (FTase)<10 nM, are preferred. Compounds having a low IC50 value against FTase and a high IC50 value against GGTase, for example an IC50 (FTase)<100 nM, such as an IC50 (FTase)<10 nM, and an IC50 (GGTase)>100 nM, are potent and selective inhibitors of FTase, and are particularly preferred.
# The inhibition activities of the compounds disclosed herein against Ftase and GGTase were measured in the respective fluorescence assays as follows:
# For the FTase assay, recombinant human FTase (2.5 nM), Dansyl labelled GCVLS peptide (85 nM), FPP (30 nM) and inhibitor were mixed in assay buffer (50 mM Tris, pH 7.5, 10 mM magnesium chloride, 10 μM zinc chloride, 0.08% CHAPS, 5 mM dithiothreitol) and incubated in a total volume of 20 μL at 30° C. for 50 minutes.
# For both the FTase assay and GGTase assay, fluorescence intensity was detected (excitation at 340 nm and emission at 486 nm) using EnVision (PerkinElmer; Waltham, MA), IC50 determinations were performed using a sigmoidal dose-response model with Xlfit software (IDBS, Inc.; Boston, MA), and tipifarnib was used as a positive control. All the assay plates for each assay passed the QC criteria (S/B, Z factor).
row,Structure (SMILES),pIC50
1,"[2H]C([2H])([2H])n1c(=O)cc2c3cc(ccc31)[C@](N)(c1cncn1C)c1ccc(C#N)c(c1)COc1cccc-2c1 (racemic) [(R)-56, (R)-3-amino-2^1-(methyl-d3)-3-(1-methyl-1H-imidazol-5-yl)-2^2-oxo-2^1,2^2-dihydro-6-oxa-2(4,6)-quinolina-1,4(1,3)-dibenzenacyclohexaphane-4^4-carbonitrile]",< 7.00
2,"Cn1cncc1[C@]1(N)c2ccc(C#N)c(c2)COc2cccc(c2)-c2cc(=O)n(C3CC3)c3ccc1cc23 (racemic) [(R)-57, (R)-3-amino-21-cyclopropyl-3-(1-methyl-1H-imidazol-5-yl)-2^2-oxo-2^1,2^2-dihydro-6-oxa-2(4,6)-quinolina-1,4(1,3)-dibenzenacyclohexaphane-4^4-carbonitrile]",< 7.00
3,"Cn1cncc1[C@]1(N)c2ccc(C#N)c(c2)COc2cccc(c2)-c2cc(C#N)nc3ccc1cc23 (racemic) [(R)-58, (R)-3-amino-3-(1-methyl-1H-imidazol-5-yl)-6-oxa-2(4,6)-quinolina-1,4(1,3)-dibenzenacyclohexaphane-2^2,4^4-dicarbonitrile]",7.00 to 8.00
4,"Cn1cncc1[C@]1(N)c2ccc(C#N)c(c2)COc2cccc(c2)-c2cc(N3CCOCC3)nc3ccc1cc23 (racemic) [(R)-66, (R)-3-amino-3-(1-methyl-1H-imidazol-5-yl)-2^2-morpholino-6-oxa-2(4,6)-quinolina-1,4(1,3)-dibenzenacyclohexaphane-4^4-carbonitrile]",≥ 8.00
5,"[2H]C([2H])([2H])n1cncc1[C@]1(N)c2ccc(C#N)c(c2)COc2cccc(c2)-c2cc(C#N)nc3ccc1cc23 (racemic) [(R)-70, (R)-3-amino-3-(1-(methyl-d3)-1H-imidazol-5-yl)-6-oxa-2(4,6)-quinolina-1,4(1,3)-dibenzenacyclohexaphane-2^2,4^4-dicarbonitrile]",7.00 to 8.00
6,"Cn1cncc1[C@]1(O)c2ccc(C#N)c(c2)CCc2cccc(c2)-c2cc(=O)n(C)c3ccc1cc23 (racemic) [(S)-6, (S)-3-hydroxy-2^1-methyl-3-(1-methyl-1H-imidazol-5-yl)-2^2-oxo-2^1,2^2-dihydro-2(4,6)-quinolina-1,4(1,3)-dibenzenacyclohexaphane-4^4-carbonitrile]",< 7.00
7,"Cn1cncc1[C@]1(N)c2ccc(C#N)c(c2)CCc2cccc(c2)-c2cc(=O)n(C)c3ccc1cc23 (racemic) [(S)-7, (S)-3-amino-2^1-methyl-3-(1-methyl-1H-imidazol-5-yl)-22-oxo-2^1,2^2-dihydro-2(4,6)-quinolina-1,4(1,3)-dibenzenacyclohexaphane-4^4-carbonitrile]",< 7.00
8,"[2H]C([2H])([2H])n1c(=O)cc2c3cc(ccc31)[C@](N)(c1cncn1C)c1ccc(C#N)c(c1)CCc1cccc-2c1 (racemic) [(S)-8, (S)-3-amino-2^1-(methyl-d3)-3-(1-methyl-1H-imidazol-5-yl)-22-oxo-2^1,2^2-dihydro-2(4,6)-quinolina-1,4(1,3)-dibenzenacyclohexaphane-4^4-carbonitrile]",< 7.00
9,"Cn1cncc1[C@]1(N)c2ccc(C#N)c(c2)CCc2cccc(c2)-c2cc(C#N)nc3ccc1cc23 (racemic) [(S)-9, (S)-3-amino-3-(1-methyl-1H-imidazol-5-yl)-2(4,6)-quinolina-1,4(1,3)-dibenzenacyclohexaphane-2^2,4^4-dicarbonitrile]",< 7.00
10,"[2H]C([2H])([2H])n1c(=O)cc2c3cc(ccc31)[C@@H](n1cncc1C)c1ccc(Cl)c(c1)COc1cccc-2c1 [(R)-76, (R)-4^4-chloro-2^1-(methyl-d3)-3-(5-methyl-1H-imidazol-1-yl)-2^1,2^2-dihydro-6-oxa-2(4,6)-quinolina-1,4(1,3)-dibenzenacyclohexaphan-2^2-one]",7.00 to 8.00
11,"[2H]C([2H])([2H])n1c(=O)cc2c3cc(ccc31)[C@@H](n1cnc(C)c1)c1ccc(Cl)c(c1)COc1cccc-2c1 [(R)-77, (R)-4^4-chloro-2^1-(methyl-d3)-3-(4-methyl-1H-imidazol-1-yl)-2^1,2^2-dihydro-6-oxa-2(4,6)-quinolina-1,4(1,3)-dibenzenacyclohexaphan-2^2-one]",7.00 to 8.00
12,"[2H]C([2H])([2H])n1cncc1[C@]1(O)c2ccc(C#N)c(c2)COc2cccc(c2)-c2cc(C#N)nc3ccc1cc23 [(R)-078, (R)-3-hydroxy-3-(1-(methyl-d3)-1H-imidazol-5-yl)-6-oxa-2(4,6)-quinolina-1,4(1,3)-dibenzenacyclohexaphane-2^2 4^4-dicarbonitrile]",7.00 to 8.00
13,"[2H]C([2H])([2H])n1c(=O)cc2c3cc(ccc31)[C@@H](n1ncnc1C)c1ccc(Cl)c(c1)COc1cccc-2c1 [(R)-079, (R)-4^4-chloro-2^1-(methyl-d3)-3-(5-methyl-1H-1,2,4-triazol-1-yl)-2^1,2^2-dihydro-6-oxa-2(4,6)-quinolina-1,4(1,3)-dibenzenacyclohexaphan-2^2-one]",7.00 to 8.00
14,"[2H]C([2H])([2H])n1c(=O)cc2c3cc(ccc31)[C@@H](n1cnc(C)n1)c1ccc(Cl)c(c1)COc1cccc-2c1 [(R)-080, (R)-4^4-chloro-2^1-(methyl-d3)-3-(3-methyl-1H-1,2,4-triazol-1-yl)-2^1,2^2-dihydro-6-oxa-2(4,6)-quinolina-1,4(1,3)-dibenzenacyclohexaphan-2^2-one]",7.00 to 8.00
15,"Cn1cncc1[C@]1(N)c2ccc(C#N)c(c2)COc2cccc(c2)-c2nccc3ccc1cc23 [(R)-86, (R)-3-amino-3-(1-methyl-1H-imidazol-5-yl)-6-oxa-2(1,7)-isoquinolina-1,4(1,3)-dibenzenacyclohexaphane-4^4-carbonitrile]",< 7.00
16,"Cn1cncc1[C@]1(N)c2ccc(C#N)c(c2)COc2cccc(c2)-c2cc(OC3COC3)nc3ccc1cc23 [(R)-89, (R)-3-amino-3-(1-methyl-1H-imidazol-5-yl)-2^2-(oxetan-3-yloxy)-6-oxa-2(4,6)-quinolina-1,4(1,3)-dibenzenacyclohexaphane-4^4-carbonitrile]",7.00 to 8.00
17,"Cc1cn([C@H]2c3ccc(C#N)c(c3)COc3cccc(c3)-c3cc(C#N)nc4ccc2cc34)cn1 [(R)-90, (R)-3-(4-methyl-1H-imidazol-1-yl)-6-oxa-2(4,6)-quinolina-1,4(1,3)-dibenzenacyclohexaphane-2^2,4^4-dicarbonitrile]",7.00 to 8.00
18,"Cn1cncc1[C@@]1(N)c2ccc(C#N)c(c2)COc2cccc(c2)-c2cc(N3CCOCC3)nc3ccc1cc23 [(S)-66, (S)-3-amino-3-(1-methyl-1H-imidazol-5-yl)-2^2-morpholino-6-oxa-2(4,6)-quinolina-1,4(1,3)-dibenzenacyclohexaphane-4^4-carbonitrile]",≥ 8.00
19,"[2H]C([2H])([2H])n1cncc1[C@@]1(N)c2ccc(C#N)c(c2)COc2cccc(c2)-c2cc(C#N)nc3ccc1cc23 [(S)-70, (S)-3-amino-3-(1-(methyl-d3)-1H-imidazol-5-yl)-6-oxa-2(4,6)-quinolina-1,4(1,3)-dibenzenacyclohexaphane-2^2 4^4-dicarbonitrile]",≥ 8.00
20,"[2H]C([2H])([2H])n1c(=O)cc2c3cc(ccc31)[C@H](n1cncc1C)c1ccc(Cl)c(c1)COc1cccc-2c1 [(S)-76, (S)-4^4-chloro-2^1-(methyl-d3)-3-(5-methyl-1H-imidazol-1-yl)-2^1,2^2-dihydro-6-oxa-2(4,6)-quinolina-1,4(1,3)-dibenzenacyclohexaphan-2^2-one]",7.00 to 8.00
21,"[2H]C([2H])([2H])n1c(=O)cc2c3cc(ccc31)[C@H](n1cnc(C)c1)c1ccc(Cl)c(c1)COc1cccc-2c1 [(S)-77, (S)-4^4-chloro-2^1-(methyl-d3)-3-(4-methyl-1H-imidazol-1-yl)-2^1,2^2-dihydro-6-oxa-2(4,6)-quinolina-1,4(1,3)-dibenzenacyclohexaphan-2^2-one]",7.00 to 8.00
22,"[2H]C([2H])([2H])n1cncc1[C@@]1(O)c2ccc(C#N)c(c2)COc2cccc(c2)-c2cc(C#N)nc3ccc1cc23 [(S)-078, (S)-3-hydroxy-3-(1-(methyl-d3)-1H-imidazol-5-yl)-6-oxa-2(4,6)-quinolina-1,4(1,3)-dibenzenacyclohexaphane-2^2 4^4-dicarbonitrile]",≥ 8.00
23,"[2H]C([2H])([2H])n1c(=O)cc2c3cc(ccc31)[C@H](n1ncnc1C)c1ccc(Cl)c(c1)COc1cccc-2c1 [(S)-079, (S)-4^4-chloro-2^1-(methyl-d3)-3-(5-methyl-1H-1,2,4-triazol-1-yl)-2^1,2^2-dihydro-6-oxa-2(4,6)-quinolina-1,4(1,3)-dibenzenacyclohexaphan-2^2-one]",< 7.00
